Columns and labels:
Test in all cases: relative viability (nuclei count vs DMSO), 5 days (fraction); higher = more cells survive
[1] = compound: CC(C)N(CCCNC(=O)Nc1ccc(C(C)(C)C)cc1)C[C@H]1O[C@@H](n2ccc3c(N)ncnc32)[C@H](O)[C@@H]1O + Nc1ncn([C@H]2C[C@H](O)[C@@H](CO)O2)c(=O)n1 [Decitabine] (partner 2 µM)
How it was run: (§1)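 Dosing by pin tool came one day after lung cancer cell lines were seeded in 1536-well plates, using either one drug or a fixed anchor-drug dose plus five library-drug doses (not always all listed) in √10 steps. After 5 days, nuclei were counted on 4× images. Relative viability is treated-well nuclei count divided by vehicle-well nuclei count, and values are medians of duplicate plates.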

[2] = compound: CC(C)N(CCCNC(=O)Nc1ccc(C(C)(C)C)cc1)C[C@H]1O[C@@H](n2ccc3c(N)ncnc32)[C@H](O)[C@@H]1O + CC(=O)c1c(C)c2cnc(Nc3ccc(N4CCNCC4)cn3)nc2n(C2CCCC2)c1=O [Palbociclib] (partner 0.5 µM)
How it was run: as §1

Shikonin + Crizotinib = compound: CC(C)=CC[C@@H](O)C1=CC(=O)c2c(O)ccc(O)c2C1=O [Shikonin] + C[C@@H](Oc1cc(-c2cnn(C3CCNCC3)c2)cnc1N)c1c(Cl)ccc(F)c1Cl [Crizotinib] (partner 1 µM)
How it was run: as §1

Shikonin + Linsitinib = compound: CC(C)=CC[C@@H](O)C1=CC(=O)c2c(O)ccc(O)c2C1=O [Shikonin] + C[C@]1(O)C[C@@H](c2nc(-c3ccc4ccc(-c5ccccc5)nc4c3)c3c(N)nccn32)C1 [Linsitinib] (partner 1 µM)
How it was run: as §1

Row | Cell Line | relative viability ([1]; first compound 0.08 µM) | relative viability ([1]; first compound 0.253 µM) | relative viability ([1]; first compound 0.8 µM) | relative viability ([1]; first compound 2.53 µM) | relative viability ([1]; first compound 8 µM) | relative viability ([2]; first compound 0.08 µM) | relative viability ([2]; first compound 0.253 µM) | relative viability ([2]; first compound 0.8 µM) | relative viability ([2]; first compound 2.53 µM) | relative viability ([2]; first compound 8 µM) | relative viability (Shikonin + Crizotinib; first compound 0.01 µM) | relative viability (Shikonin + Crizotinib; first compound 0.1 µM) | relative viability (Shikonin + Crizotinib; first compound 0.3162 µM) | relative viability (Shikonin + Crizotinib; first compound 1 µM) | relative viability (Shikonin + Linsitinib; first compound 0.01 µM) | relative viability (Shikonin + Linsitinib; first compound 0.1 µM) | relative viability (Shikonin + Linsitinib; first compound 0.3162 µM) | relative viability (Shikonin + Linsitinib; first compound 1 µM)
1 | NCI-H1437 | 0.563 | 0.569 | 0.619 | 0.553 | 0.592 | 0.299 | 0.289 | 0.288 | 0.275 | 0.307 | 1.02 | 1.17 | 0.883 | 0.993 | 1.28 | 1.05 | 1.23 | 1.11
2 | NCI-H1651 | 0.611 | 0.534 | 0.589 | 0.611 | 0.539 | 0.497 | 0.485 | 0.49 | 0.515 | 0.518 | 0.857 | 0.831 | 0.883 | 0.876 | 0.974 | 1.12 | 0.996 | 1.01
3 | NCI-H1666 | 0.722 | 0.697 | 0.808 | 0.832 | 0.673 | 0.64 | 0.634 | 0.659 | 0.65 | 0.656 | 1.12 | 0.971 | 1.12 | 0.744 | 0.835 | 0.802 | 0.807 | 0.865
4 | NCI-H1734 | 0.454 | 0.495 | 0.463 | 0.545 | 0.484 | 0.328 | 0.385 | 0.353 | 0.192 | 0.365 | 0.665 | 0.769 | 0.717 | 0.632 | 0.839 | 0.91 | 0.939 | 0.857
5 | NCI-H1755 | 0.787 | 0.701 | 0.666 | 0.668 | 0.714 | 0.437 | 0.435 | 0.45 | 0.484 | 0.498 | 0.972 | 1.09 | 0.88 | 0.887 | 1.04 | 1.04 | 1.05 | 1.07
6 | NCI-H1792 | 0.527 | – | 0.56 | 0.529 | 0.607 | 0.631 | 0.671 | 0.773 | 0.639 | 0.643 | 1.1 | 0.796 | 1.03 | 1.14 | 0.511 | 0.388 | 0.658 | 0.661
7 | NCI-H1915 | 0.274 | 0.289 | 0.269 | 0.25 | 0.267 | 0.517 | 0.543 | 0.517 | 0.533 | 0.525 | 0.904 | 1.1 | 0.915 | 1.07 | 1.05 | 1.16 | 1.15 | 1.09
8 | NCI-H1944 | 0.451 | 0.438 | 0.471 | 0.394 | 0.423 | 0.322 | 0.302 | 0.348 | 0.329 | 0.353 | 1.12 | 1.18 | 1.24 | 1.22 | 1.2 | 1.44 | 1.35 | 1.27
9 | NCI-H1975 | 0.367 | 0.44 | 0.273 | 0.354 | 0.376 | 0.557 | 0.486 | 0.205 | 0.499 | 0.497 | 1.07 | 1.18 | 1.09 | 0.959 | 1.11 | 0.985 | 1.01 | 0.793

Source: the supplement of paper PMC10307832
